The text below walks through data of patent US5753631A, “Intercellular adhesion mediators” (Cytel Corporation, priority 1995, dated 1998).

Experiment [1] has as its system histamine induced leukocyte rolling in rat mesenteric venules. Briefly: Histamine induced leukocyte rolling and adherence in rat mesenteric venules (intravital microscopy). It is filed as in vivo, rat (male Sprague-Dawley). To be noted: for effect on histamine induced leukocyte rolling: 10^-5 M histamine, FIG. 15; for Erythrocyte velocity / Leukocyte adherence / Leukocyte emigration / Venular diameter / Wall shear rate: with histamine 10^-5 M, Z, SLN 10 mg/Kg i.v., antibodies 2 mg/Kg i.v. How it is done:
Surgical procedure. Sixty-four male Sprague-Dawley rats (200-250 g) were maintained on a purified laboratory diet and fasted for 24 hours prior to the experiment. The animals were initially anesthetized with pentobarbital (65 mg/kg body weight), then a tracheotomy was performed to facilitate breathing during the experiment. The right carotid artery was cannulated and systemic arterial pressure was measured with a Statham (Oxnard, Calif.) P23A pressure transducer connected to the carotid artery cannula. Systemic blood pressure and heart rate were continuously recorded with a Grass physiologic recorder (Grass Instruments, Massachusetts). The left jugular vein was also cannulated for drug administration and blood sample collection. After a midline abdominal incision a segment of the mid-jejunum was exteriorized. All exposed tissue was moistened with saline-soaked gauze to minimize evaporation and dehydration.
Intravital microscopy. Rats were placed in a supine position on an adjustable plexiglass microscope stage and the mesentery was draped over an optically clear coverslip that allowed for observation of a 2 cm^2 segment of tissue. The temperature of the pedestal was maintained at 37° C. with a constant temperature circulator (Fisher Scientific, model 80). A small rubber gasket (area=3.14 cm^2) was placed on the mesentery and the outside area of contact between the gasket and mesentery was sealed (to prevent leakage of superfusate from the ring) with a mixture of high vacuum grease (Dow Corning Corp., Midland, Mich.) and white petrolatum (E. Fougera & Co., Melville, N.Y.). Rectal and mesenteric temperatures were continuously monitored using an electrothermometer. The exposed bowel wall was covered with Saran Wrap (Dow Chemical Co., Indiana), and the mesenteric tissue within the gasket was suffused with warmed bicarbonate-buffered saline (BBS; pH 7.4) that was bubbled with a mixture of 5% O2; 5% CO2; 90% N2.
An inverted microscope (Nikon Optiphoto, Japan) with a ×40 objective lens (Nikon Optiphoto, Japan) and a ×10 eyepiece was used to observe the mesenteric microcirculation. The mesentery was transilluminated with a 12 V-100 W direct current-stabilized light source. A video camera (Hitachi, VK-C150, Japan) mounted on the microscope projected the image onto a color monitor (Sony, PVM-2030, Japan), and the images were recorded using a video cassette recorder (Panasonic, NV8950, Japan). A video time-date generator (Panasonic, WJ810, Japan) projected the time, date, and stopwatch function onto the monitor.
Single unbranched venules with diameters ranging between 25 μm and 35 μm and a length>150 μm were selected for study. Venular diameter (Dv) was measured either on- or off-line using a video image-shearing monitor (IPM, La Mesa, Calif.). The number of adherent leukocytes was determined off-line during playback of videotaped images. A leukocyte was considered to be adherent to venular endothelium if it remained stationary for a period equal to or greater than 30 seconds. Adherent cells were expressed as the number per 100 μm length of venule. The number of emigrated leukocytes was also determined off-line during playback of videotaped images. Ary interstitial leukocytes present in the mesentery at the onset of the experiment were subtracted from the total number of leukocytes that accumulated during the course of the experiment. Leukocyte emigration was expressed as the number per microscopic field (1.7×10^-2 mm^2) or 150 μm length of venule. Rolling leukocytes were defined as those white blood cells that moved at a velocity less than that of erythrocytes in the same stream. The flux of rolling leukocytes was determined as the number of rolling leukocytes which crossed a fixed point on the venule over a given period of time. Leukocyte rolling velocity was determined from the time required for a leukocyte to roll along a given distance of the venule.

In another experiment the test system is creatinine kinase. Briefly: Plasma creatinine kinase after myocardial ischemia-reperfusion in cats. Type of experiment: in vivo, cat. Conditions: 10 mg/Kg i.v.; control 25±3, P<0.01. How it is done: (§1) A model of myocardial ischemia and reperfusion injury in cats was performed according to the methods of Tsao et al (Circulation 82:1402-1412 (1990), which is incorporated herein by reference. Briefly, male cats (2.5-3.5 Kg) were anesthetized with sodium pentobarbital (30 mg/Kg, i.v.). An intratracheal tube was inserted through a mid-line incision and all cats were given intermittent positive pressure ventilation by a Harvard small animal respirator. A polyethylene catheter was inserted into the external jugular vein and the right […] was cannulated and connected to a Statham P23AC pressure transducer for the measurement of arterial blood pressure. A midline thoracotomy was performed, the pericardium was opened and the heart was exposed. A 2-0 silk suture was carefully placed around the left anterior descending artery (LAD) 10-12 mm from its origin. […]
(§2) Endothelial dependent relaxation of coronary artery rings was determined by measuring the acetylcholine-induced relaxation of rings previously contracted with the thromboxane A2 mimetic U46619. Data are expressed as percentage relaxation. Creatinine kinase enzyme levels were measured immunochemically in plasma samples collected at the end of the reperfusion period. The adherence of PMNs to sections of coronary artery was measured in vitro using fluorescene labelled autologous cat neutrophils.

Experiment [2] relates to coronary vascular endothelium. Briefly: Adherence of cat PMNs to coronary endothelium in vitro. Type of experiment: cell-based. As to the method:
as §2

The test system of another experiment is coronary artery rings. Briefly: Acetylcholine-induced endothelial dependent relaxation of coronary artery rings from ischemic-reperfused cats. Type of experiment: in vivo, cat. Conditions: 10 mg/Kg i.v.; control 22±6%, P<0.01. As to the method:
as §1, §2

For experiment [3], the system named is dermal and pulmonary models of inflammation. Briefly: Dermal and pulmonary models of inflammation: leukocyte accumulation. It is filed as in vivo.
Experiment [4] deals with myocardial ischemia-reperfusion injury in the cat heart. Briefly: Myocardial ischemia-reperfusion injury in cats: ischemic myocardium. Conditions: 10 mg/Kg i.v.; control 35±4%, P<0.01. Type of experiment: in vivo, cat (male). As to the method: A model of myocardial ischemia and reperfusion injury in cats was performed according to the methods of Tsao et al (Circulation 82:1402-1412 (1990), which is incorporated herein by reference. Briefly, male cats (2.5-3.5 Kg) were anesthetized with sodium pentobarbital (30 mg/Kg, i.v.). An intratracheal tube was inserted through a mid-line incision and all cats were given intermittent positive pressure ventilation by a Harvard small animal respirator. A polyethylene catheter was inserted into the external jugular vein and the right […] was cannulated and connected to a Statham P23AC pressure transducer for the measurement of arterial blood pressure. A midline thoracotomy was performed, the pericardium was opened and the heart was exposed. A 2-0 silk suture was carefully placed around the left anterior descending artery (LAD) 10-12 mm from its origin. After a 30 minute period of stabilization myocardial ischemia was initiated by complete ligation of the LAD for 1.5 hours of ischemia followed by 4.5 hours of reperfusion. Z (10 mg/Kg in PBS) or PBS alone were administered intravenously 10 minutes prior to the initiation of reperfusion.
Area at risk was determined by reocclusion of the LAD at the end of the reperfusion period followed by the injection of Evans blue dye into the left atrium. The area of risk was, therefore, determined by negative staining.

As to `CC(=O)NC1C(O)OC(CO)C(OC2OC(CO)C(O)C(OC3(C(=O)O)CC(O)C(NC(C)=O)C(C(O)C(O)CO)O3)C2O)C1O` (stereo not shown) [SLN, reference compound], in experiment [1], the “effect on histamine induced leukocyte rolling” value is reported as “had no effect”, the Erythrocyte velocity was found to be 3.0 ± 0.5 mm/sec, the Leukocyte adherence amounted to 5.5 ± 1.4 per 100 μm and the Leukocyte emigration was 4.8 ± 2.8 per field. Besides, in experiment [1], the Venular diameter was determined as 31 ± 2 μm and the Wall shear rate amounted to 495 ± 28 s⁻¹.

Consider `CCO[C@@H]1O[C@H](CO)[C@H](O)[C@H](O[C@@H]2O[C@H](CO)[C@@H](O[C@@H]3O[C@H](CO)[C@H](O)[C@H](O[C@]4(C(=O)O)C[C@H](O)[C@@H](NC(C)=O)[C@H]([C@H](O)[C@H](O)CO)O4)[C@H]3O)[C@H](O[C@@H]3O[C@@H](C)[C@@H](O)[C@@H](O)[C@@H]3O)[C@H]2NC(C)=O)[C@H]1O` [Z, Ethyl(sodium(5-acetamido-3,5-dideoxy-α-D-glycero-D-galacto-2-nonulopyanosylonate))-(2-3)-O-(β-D-galactopyranosyl)-(1-4)-O-((α-L-fucopyranosyl)-(1-3))-O-(2-acetamido-2-deoxy-β-D-glucopyranosyl)-(1-3)-O-β-D-galactopyranoside], for which the “effect on leukocyte adherence induced by 10^-5 M histamine” value in experiment [1] (10 mg/Kg i.v.) is listed as “significantly attenuated”. Also, in experiment [1], the “effect on histamine induced leukocyte rolling” value is “inhibited leukocyte rolling”, the Erythrocyte velocity is listed as 2.1 ± 0.2 mm/sec, the Leukocyte adherence was determined as 2.3 ± 1.9 per 100 μm and the Leukocyte emigration is listed as 2.0 ± 1.2 per field. In experiment [1], the Venular diameter turned out to be 29 ± 0.2 μm and the Wall shear rate turned out to be 355 ± 14 s⁻¹. Also, the “plasma concentration of creatinine kinase” value with creatinine kinase is 7±1 IU/mg protein. In addition, in experiment [2] (250μM, thrombin 2 unit/mL), the “adhesion of cat PMNs to thrombin stimulated coronary vascular endothelium” value was “blocked the adhesion of cat PMNs”. Further, the “adherence of PMNs to coronary endothelium from treated animals” value in experiment [2] (endothelium from treated animals versus control animals) is given as “less than that determined in control animals”. In the experiment on coronary artery rings, the “endothelial dependent relaxation to acetylcholine” value came to 73±7%. Moreover, in experiment [3], the “inhibition of leukocyte accumulation” value is on record as “do not provide evidence of the ability of Z to inhibit leukocyte accumulation”. Also, the “extent of myocardial ischemia, of the area at risk” value in experiment [4] is listed as 6±1%.
